Measured values reported in PMC6050274, “Buparlisib is a brain penetrable pan-PI3K inhibitor” (Scientific Reports, 2018).

What was measured:
PI3K = experiment: Intracranial target inhibition, immunoblotting of brain lysates; assay type: in vivo, FVB mice
Experimental: Figure 3 Buparlisib has excellent intracranial target engagement and oral bioavailability. (A) Buparlisib was orally administered to wildtype mice at a dose of 1 mg/kg, 2 mg/kg or 5 mg/kg. One hour after injection, blood and tissues were collected for LC-MS/MS analysis. Buparlisib plasma and brain levels increase dose-dependently, yielding similar and excellent brain-plasma ratios at all dose levels that were tested. (B) Immunoblotting of brain tissue lysates from (A). […] (C) Plasma-time curves of male and female wildtype mice following intravenous (2 mg/kg) or oral (5 mg/kg) administration. […] The oral bioavailability of buparlisib is excellent, since oral and intravenous administration yielded similar dose-adjusted AUCs (see Table 1). All data are represented as mean ± SD (n = 4).
Next, we studied the intracranial pharmacodynamics of buparlisib in WT FVB mice as measured by target inhibition.
Mouse brains were homogenized in RIPA buffer supplemented with sodium fluoride (2 mM), sodium orthovanadate (1 mM), sodium pyrophosphate (1 mM), β-glycerophosphate (2.5 mM), PMSF (1 mM), DTT (1 mM) and protein inhibitor cocktail (Roche; Basel, Switzerland). The primary antibodies that were used in this study are phospho-Akt^S473 (1:1000; D9E, #4060; Cell Signaling Technology; Danvers, MA), total Akt (1:1000; #9272; Cell Signaling Technology), phospho-Erk1^T202/204/Erk2^T183/Y185 (1:1000; sc-16982; Santa Cruz Biotechnology, Dallas, TX), total Erk1/2 (1:1000; C16, sc-93; Santa Cruz Biotechnology) and β–tubulin (1:1000; T3952; Sigma-Aldrich, St. Louis, MO). Goat-anti-rabbit-HRP (1:2000; DAKO, Santa Clara, CA) was used a secondary antibody.

human BCRP (ABCG2) = target: T1, human BCRP (ABCG2) (Homo sapiens, UniProt Q9UNQ0); experiment: Concentration equilibrium transport assay (CETA), MDCK-BCRP; assay type: in vitro ADME; details: 100 nM
T1 construct: expressed in transfected cells; host or cells: MDCK (MDCK-BCRP)
T1 sequence (Q9UNQ0 1-655): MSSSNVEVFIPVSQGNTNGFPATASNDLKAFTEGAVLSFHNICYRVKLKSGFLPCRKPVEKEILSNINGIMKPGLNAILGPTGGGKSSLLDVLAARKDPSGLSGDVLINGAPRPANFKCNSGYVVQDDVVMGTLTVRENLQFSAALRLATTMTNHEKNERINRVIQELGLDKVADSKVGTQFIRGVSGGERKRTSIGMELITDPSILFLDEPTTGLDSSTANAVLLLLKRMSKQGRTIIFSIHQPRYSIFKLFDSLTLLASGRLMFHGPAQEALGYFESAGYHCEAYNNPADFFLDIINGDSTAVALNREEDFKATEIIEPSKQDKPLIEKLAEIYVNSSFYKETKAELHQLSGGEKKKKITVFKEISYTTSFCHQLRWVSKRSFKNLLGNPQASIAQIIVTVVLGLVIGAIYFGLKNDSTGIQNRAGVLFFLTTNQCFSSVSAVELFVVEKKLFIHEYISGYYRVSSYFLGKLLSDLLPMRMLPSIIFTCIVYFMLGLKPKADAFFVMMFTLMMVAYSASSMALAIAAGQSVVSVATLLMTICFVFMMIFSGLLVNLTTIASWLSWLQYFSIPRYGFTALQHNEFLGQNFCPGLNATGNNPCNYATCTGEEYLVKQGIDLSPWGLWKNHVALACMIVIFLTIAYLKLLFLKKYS
Text: Figure 1 Analysis of buparlisib substrate affinity for ABC transporters using in vitro transport assays. (A) The chemical structure of buparlisib. (B) A conventional transport assay (CTA) using LLC-PK1 cells in presence of zosuquidar to block endogenous (porcine) P-gp activity. […] (C) Concentration equilibrium transport assays (CETAs) using MDCK or LLC cells that overexpress murine BCRP, (Bcrp1), human BCRP, murine P-gp (Mdr1a) or human P-gp (MDR1). […] The P-gp inhibitor zosuquidar was used in all MDCK cell lines to inhibit endogenous P-gp activity and in LLC cell lines to validate possible P-gp-mediated translocations. […]
Conventional bidirectional transport assays (CTAs) and concentration equilibrium transport assays (CETAs) were performed as described previously. […] Transwell leakiness was determined as Carboxyl-[^14C]-inulin translocation exceeding 1.5% per hour and these wells were excluded from the analysis. […]
As described in detail before, CETA results were analysed with the General linear model repeated measures procedure of SPSS (v22; SPSS Inc, Chicago, IL)[25]. […] The standard error of the oral bioavailability was calculated using the formula below: SEF=F(SEAUCp.o./AUCp.o.)^2+(SEAUCi.v./AUCi.v.)^2 Buparlisib concentrations in WT and transporter knockout mice in vivo were compared using one-way analysis of variance followed by post hoc Bonferroni tests. […]

[1] = humans; cited from earlier work

SMILES: Nc1cc(C(F)(F)F)c(-c2cc(N3CCOCC3)nc(N3CCOCC3)n2)cn1 [buparlisib]
- phosphorylation of Akt S473 in the brain (PI3K; oral 5 mg/kg, wildtype mice): efficiently inhibited
- phosphorylation of AKT in brain lysates (PI3K; oral 1, 2, 5 mg/kg, WT FVB mice): dose-dependently decreased
- signalling through ERK in brain lysates (PI3K; oral, WT FVB mice): without affecting
- substrate of human BCRP (human BCRP (ABCG2)): not a substrate
- maximum tolerated dose [1]: 100 mg per day
